Activity calls are given as the source filed them. The calls are words filed in the database; no cut-off is given here.
Assays:
A549 [1] = assay: Induction of apoptosis in human A549 cells assessed as morphological change at 1 uM after 48 hrs by Hoechst 33258 staining based fluorescence microscopic analysis; type: functional, cell-based
HeLa = assay: Cytotoxicity against human HeLa cells assessed as reduction in cell viability after 48 hrs by MTT assay; type: functional, cell-based
A549 [2] = assay: Cell cycle arrest in human A549 cells assessed as G2/M phase accumulation at 1 uM after 48 hrs by propidium iodide staining based FACS analysis (reference value: 16.81%); type: functional
A549 [3] = assay: Induction of apoptosis in human A549 cells assessed as live cells at 2 uM after 48 hrs by Annexin V-FITC/propidium iodide staining based flow cytometry (reference value: 91.22%); type: functional
A549 [4] = assay: Cell cycle arrest in human A549 cells assessed as G0/G1 phase accumulation after 48 hrs by propidium iodide staining based FACS analysis; type: functional
DU-145 = assay: Cytotoxicity against human DU145 cells assessed as reduction in cell viability after 48 hrs by MTT assay; type: functional, cell-based; conditions: DU-145, 48 h
A549 [5] = assay: Induction of apoptosis in human A549 cells assessed as cell population with intact mitochondrial membrane potential at 1 uM measured after 48 hrs by JC-1 staining based flow cytometry (reference value: 37.5%); type: functional
A549 [6] = assay: Cell cycle arrest in human A549 cells assessed as sub G1 phase accumulation at 1 uM after 48 hrs by propidium iodide staining based FACS analysis (reference value: 0.96%); type: functional
A549 [7] = assay: Induction of apoptosis in human A549 cells assessed as cell population with mitochondrial membrane potential loss at 2 uM measured after 48 hrs by JC-1 staining based flow cytometry (reference value: 27.4%); type: functional
A549 [8] = assay: Induction of apoptosis in human A549 cells assessed as late apoptotic cells at 2 uM after 48 hrs by Annexin V-FITC/propidium iodide staining based flow cytometry (reference value: 5.19%); type: functional
HEK293 = assay: Cytotoxicity against human HEK293 cells assessed as reduction in cell viability after 48 hrs by MTT assay; type: cell-based; conditions: HEK293, 48 h
Spodoptera litura [9] = assay: Antifeedant activity in Spodoptera litura assessed as pupal mortality after 24 hrs by leaf disk method (reference value: 0%); type: functional
A549 [10] = assay: Induction of apoptosis in human A549 cells assessed as live cells at 1 uM after 48 hrs by Annexin V-FITC/propidium iodide staining based flow cytometry (reference value: 91.22%); type: functional
A549 [11] = assay: Induction of apoptosis in human A549 cells assessed as early apoptotic cells at 2 uM after 48 hrs by Annexin V-FITC/propidium iodide staining based flow cytometry (reference value: 3.24%); type: functional
Spodoptera litura [12] = assay: Insecticidal activity in Spodoptera litura third-instar larvae assessed as larval mortality at 5 ug/cm2 after 24 hrs by leaf disk method relative to control; type: functional; conditions: foliar
A549 [13] = assay: Cytotoxicity against human A549 cells assessed as reduction in cell viability after 48 hrs by MTT assay; type: functional, cell-based; conditions: A549, 48 h
Spodoptera litura [14] = assay: Antifeedant activity in Spodoptera litura third-instar larvae assessed as increase in feeding deterrence by measuring antifeedant index at 5 ug/cm2 after 24 hrs by leaf disk method; type: functional
Spodoptera litura [15] = assay: Antifeedant activity in Spodoptera litura assessed as pupal weight after 24 hrs by leaf disk method (reference value: 0.245 +/- 0.02 g); type: functional
A549 [16] = assay: Cell cycle arrest in human A549 cells assessed as G0/G1 phase accumulation at 2 uM after 48 hrs by propidium iodide staining based FACS analysis (reference value: 77.91%); type: functional
A549 [17] = assay: Cell cycle arrest in human A549 cells assessed as G2/M phase accumulation at 2 uM after 48 hrs by propidium iodide staining based FACS analysis (reference value: 16.81%); type: functional
MCF7 = assay: Cytotoxicity against human MCF7 cells assessed as reduction in cell viability after 48 hrs by MTT assay; type: functional, cell-based; conditions: MCF7, 48 h
Spodoptera litura [18] = assay: Antifeedant activity in Spodoptera litura third-instar larvae assessed as increase in feeding deterrence after 24 hrs by leaf disk method; type: functional
A549 [19] = assay: Induction of apoptosis in human A549 cells assessed as late apoptotic cells at 1 uM after 48 hrs by Annexin V-FITC/propidium iodide staining based flow cytometry (reference value: 5.19%); type: functional
A549 [20] = assay: Cell cycle arrest in human A549 cells assessed as S phase accumulation at 2 uM after 48 hrs by propidium iodide staining based FACS analysis (reference value: 2.45%); type: functional
Spodoptera litura [21] = assay: Antifeedant activity in Spodoptera litura third-instar larvae assessed as larval duration time after 24 hrs by leaf disk method (reference value: 10.1 +/- 0.1 day); type: functional
A549 [22] = assay: Cell cycle arrest in human A549 cells assessed as G0/G1 phase accumulation at 1 uM after 48 hrs by propidium iodide staining based FACS analysis (reference value: 77.91%); type: functional
A549 [23] = assay: Induction of apoptosis in human A549 cells after 48 hrs by Annexin V-FITC/propidium iodide staining based flow cytometry; type: functional, cell-based
A549 [24] = assay: Induction of apoptosis in human A549 cells assessed as cell population with mitochondrial membrane potential loss at 1 uM measured after 48 hrs by JC-1 staining based flow cytometry (reference value: 27.4%); type: functional
A549 [25] = assay: Induction of apoptosis in human A549 cells assessed as necrotic cells at 2 uM after 48 hrs by Annexin V-FITC/propidium iodide staining based flow cytometry (reference value: 0.35%); type: functional
A549 [26] = assay: Cell cycle arrest in human A549 cells assessed as sub G1 phase accumulation at 2 uM after 48 hrs by propidium iodide staining based FACS analysis (reference value: 0.96%); type: functional
A549 [27] = assay: Cell cycle arrest in human A549 cells assessed as S phase accumulation at 1 uM after 48 hrs by propidium iodide staining based FACS analysis (reference value: 2.45%); type: functional
A549 [28] = assay: Induction of apoptosis in human A549 cells assessed as early apoptotic cells at 1 uM after 48 hrs by Annexin V-FITC/propidium iodide staining based flow cytometry (reference value: 3.24%); type: functional
A549 [29] = assay: Induction of apoptosis in human A549 cells assessed as cell population with intact mitochondrial membrane potential at 2 uM measured after 48 hrs by JC-1 staining based flow cytometry (reference value: 37.5%); type: functional
A549 [30] = assay: Induction of apoptosis in human A549 cells assessed as necrotic cells at 1 uM after 48 hrs by Annexin V-FITC/propidium iodide staining based flow cytometry (reference value: 0.35%); type: functional

## CC(C)(O)[C@@H]1CC[C@](C)([C@H]2[C@@H](O)C[C@@]3(C)[C@@H]4C[C@H](O)[C@H]5C(C)(C)[C@@H](O)CC[C@@]56C[C@@]46CC[C@]23C)O1
A549 [1]
  Activity: Active
HeLa
  IC50: 2200 nM
A549 [2]
  Activity: 14.45%
A549 [3]
  Activity: 71.07%
A549 [4]
  Activity: Dose-dependent effect
DU-145
  IC50: 7260 nM
A549 [5]
  Activity: 39.6%
A549 [6]
  Activity: 0.4%
A549 [7]
  Activity: 31.1%
A549 [8]
  Activity: 23.83%
HEK293
  IC50: 128000 nM
Spodoptera litura [9]
  mortality: 89.6%
A549 [10]
  Activity: 83.55%
A549 [11]
  Activity: 3.94%
Spodoptera litura [12]
  mortality at 5 µg/cm2: 11.8%
A549 [13]
  IC50: 1540 nM
Spodoptera litura [14]
  Activity_index: 59.9
Spodoptera litura [15]
  Activity: 0.199 g
A549 [16]
  Activity: 90.47%
A549 [17]
  Activity: 7.29%
MCF7
  IC50: 1780 nM
Spodoptera litura [18]
  ED50: 11.96 microg/cm2
A549 [19]
  Activity: 11.31%
A549 [20]
  Activity: 0.87%
Spodoptera litura [21]
  Time: 14.2 days
A549 [22]
  Activity: 82.05%
A549 [23]
  Activity: Dose-dependent effect
A549 [24]
  Activity: 29%
A549 [25]
  Activity: 1.16%
A549 [26]
  Activity: 0.84%
A549 [27]
  Activity: 2.41%
A549 [28]
  Activity: 4.17%
A549 [29]
  Activity: 38.6%
A549 [30]
  Activity: 0.96%

Source: ChEMBL document CHEMBL4138079, “New cycloartane type-triterpenoids from the areal parts of Caragana sukiensis and their biological activities” (Eur J Med Chem, 2017)
